This data set is described as follows: physchem. It is filed as physicochemical. As to the method:
Measurement of Log P values as provided herein was performed according to EEC directive 79/831 Annex V.A8 by HPLC (High Performance Liquid Chromatography) on reversed phase columns with the following methods: […] If more than one Log P value is available within the same method, all the values are given and separated by “+”. Calibration was done with straight-chain alkan2-ones (with 3 to 16 carbon atoms) with known Log P values (measurement of Log P values using retention times with linear interpolation between successive alkanones). Lambda-max-values were determined using UV-spectra from 200 nm to 400 nm and the peak values of the chromatographic signals

Marks after values point to notes of the source that are not given here.

For orientation: chromatographic logP means lipophilicity estimated from chromatographic retention. Low values mean a more hydrophilic compound, high ones a more lipophilic compound.

As for `Cc1ccc(CCNC(=O)c2cc(-c3ccncc3Cl)ncc2Oc2cccc(C(F)(F)F)c2)c(C)c1` [Compound I-204], the LogP was 4.61^[a].

On to `Cc1ccc(CCNC(=O)c2cc(Cl)ncc2Oc2cccc(OC(F)(F)F)c2)c(C)c1` [Compound I-025], for which the LogP was 4.97^[a].

`Cc1ccc(C(F)(F)CNC(=O)c2c(Oc3cccc(C(F)(F)F)c3)cnc(Cl)c2-c2ccccc2)c(C)c1` [Compound I-188]: the LogP was 5.12^[a].

For the compound `Cc1ccc(CCNC(=O)c2cc(Cl)ncc2Oc2cccc(C(F)F)c2)c(C)c1` [Compound I-039], the LogP is 4.30^[a].

Take `CCc1cc(C(=O)NCC(F)c2ccc(F)cc2F)c(Oc2cccc(C(F)(F)F)c2)cn1` (centres unmarked) [Compound I-022]: the LogP was 4.66^[a].

Take `Cc1ccc(CCNC(=O)c2cc(Cl)ncc2Oc2cccc(OC(F)F)c2)c(C)c1` [Compound I-136]: the LogP is 4.43^[a].

Consider `Cc1cccc(Oc2cnc(Cl)cc2C(=O)NCCc2ccc(C)cc2C)c1` [Compound I-045], for which the LogP was 4.84^[a].

Consider `CCc1cccc(Oc2cnc(Cl)cc2C(=O)NCCc2ccc(C)cc2C)c1` [Compound I-135], for which the LogP was 5.23^[a].

With `COc1cccc(Oc2cnc(Cl)cc2C(=O)NCC(F)(F)c2ccc(C)cc2C)c1` [Compound I-042], the LogP is 4.46^[a].

On to `COc1cc(C(=O)O)c(Oc2cccc(C(F)(F)F)c2)cn1` [Compound 1-017], for which the LogP was 2.86^[a].

In the case of `Cc1cc(C(=O)NCC(F)c2ccc(Cl)cc2Cl)c(Oc2cccc(C(F)F)c2)cn1` (racemic) [Compound I-055], the LogP was 3.78^[a].

In the case of `COc1cccc(Oc2cnc(Cl)cc2C(=O)NCC(F)c2ccc(Cl)cc2Cl)c1` (racemic) [Compound I-041], the LogP was 4.51^[a].

For `Cc1ccc(CCNC(=O)c2cc(Cl)ncc2Oc2cccc(-c3ccccn3)c2)c(C)c1` [Compound I-258], the LogP is 4.16^[a].

As for `CO/N=C(/C)c1cc(C(=O)NCCc2ccc(C)cc2C)c(Oc2cccc(C(F)(F)F)c2)cn1` [Compound I-094], the LogP was 4.85^[a].

Regarding `Cc1ccc(CCNC(=O)c2cc(C(F)(F)F)ncc2Br)c(C)c1` [Compound 3-002], the LogP is 3.77^[a].

As for `COc1cccc(Oc2cnc(C)cc2C(=O)NCC(F)c2ccc(C)cc2Cl)c1` (centres unmarked) [Compound I-209], the LogP is 3.62^[a].

Consider `Cc1ccc(CCNC(=O)c2cc(Cl)nc(Cl)c2Oc2cccc(C(F)(F)F)c2)c(C)c1` [Compound I-158], for which the LogP is 5.14^[a].

Turning to `N#Cc1nc(Cl)cc(C(=O)NCC(F)(F)c2ccc(Br)cc2Cl)c1Oc1cccc(C(F)(F)F)c1` [Compound I-215], the LogP is 4.81^[a].

For the compound `O=C(NCCc1cccs1)c1cc(Cl)ncc1Oc1cccc(C(F)(F)F)c1` [Compound I-097], the LogP is 3.98^[a].

In the case of `Cc1ccc(C(F)(F)CNC(=O)c2c(Oc3cccc(C(F)(F)F)c3)cnc(Cl)c2N2CCCC2)c(C)c1` [Compound I-230], the LogP was 5.49^[a].

As to `Cc1ccc(CCNC(=O)c2cc(C)ncc2Oc2cccc(C3CC3)c2)c(C)c1` [Compound I-242], the LogP is 4.27^[a].

Consider `COc1cccc(Oc2cnc(C)cc2C(=O)NCC(F)c2ccc(Cl)cc2Cl)c1` (centres unmarked) [Compound I-219], for which the LogP is 3.75^[a].

Consider `COc1cccc(Oc2cnc(Cl)cc2C(=O)NCCc2ccc(C)cc2C)c1F` [Compound I-132], for which the LogP was 4.26^[a].

As to `O=C(NCCc1cccc2[nH]ccc12)c1cc(Cl)ncc1Oc1cccc(C(F)(F)F)c1` [Compound I-101], the LogP was 3.71^[a].

Consider `Cc1ccc(CCNC(=O)c2cc(C(F)(F)F)ncc2Oc2cccc(C3CC3)c2F)c(C)c1` [Compound I-116], for which the LogP is 5.38^[a].

Regarding `COc1ccc(CCNC(=O)c2cc(Cl)ncc2Oc2cccc(C(F)(F)F)c2)c(OC)c1` [Compound I-008], the LogP is 4.06^[a].

In the case of `O=C(NCC(F)(F)c1ccc(C2CC2)cc1Cl)c1cc(C2CC2)ncc1Oc1cccc(C2CC2)c1F` [Compound I-216], the LogP is 5.54^[a].

In turn, `C=C(OCC)c1cc(C(=O)OC)c(Oc2cccc(C(F)(F)F)c2)cn1` [Compound 1-013, methyl 2-(1-ethoxyvinyl)-5-[3-(trifluoromethyl)phenoxy]pyridine-4-carboxylate] came in with a chromatographic logP of 4.7.

On to `O=C(NCC(F)(F)c1ccc(Br)cc1Cl)c1cc(Cl)ncc1Oc1cccc(C2CC2)c1` [Compound I-066], for which the LogP was 5.36^[a].

As for `Cc1ccc(C(F)(F)CNC(=O)c2cc(Cl)ncc2Oc2cccc(C(F)F)c2)c(C)c1` [Compound I-038], the LogP is 4.35^[a].

As to `C[Si](C)(C)C#Cc1cc(C(=O)NCC(F)c2ccc(Cl)cc2Cl)c(Oc2cccc(C(F)(F)F)c2)cn1` (racemic) [Compound I-176], the LogP is 6.01^[a].

Take `Cc1cc(Cl)ccc1C(F)CNC(=O)c1cc(Cl)ncc1Oc1cccc(C(F)(F)F)c1` (racemic) [Compound I-084]: the LogP was 4.81^[a].

Regarding `COc1ccc(CCN(C(C)=O)C(=O)c2cc(Cl)ncc2Oc2cccc(C(F)(F)F)c2)cc1` [Compound I-171], the LogP is 4.55^[a].

Turning to `O=C(O)c1cc(Cl)ncc1Oc1cccc(C(F)F)c1` [Compound 1-006], the LogP was 2.48^[a].

In the case of `Cc1ccc(C(F)(F)CNC(=O)c2cc(C)ncc2Oc2cccc(C3CC3)c2)c(Cl)c1` [Compound I-071], the LogP was 4.39^[a].

For `Cc1ccc(CCNC(=O)c2cc(Cl)ncc2Oc2cc(F)cc(Cl)c2)c(C)c1` [Compound I-244], the LogP is 4.82^[a].

`C=Cc1cc(C(=O)NCC(F)(F)c2ccc(C)cc2C)c(Oc2cccc(C3CC3)c2)cn1` [Compound I-072]: the LogP is 5.05^[a].

`Cc1ccc(C(F)(F)CNC(=O)c2cc(C)ncc2Oc2cccc(Cl)c2)c(C)c1` [Compound I-058]: the LogP was 4.13^[a].

As for `Cc1ccc(C(F)(F)CNC(=O)c2cc(C)ncc2Oc2cccc(C3CC3)c2F)c(C)c1` [Compound I-069], the LogP was 4.46^[a].

As to `O=C(NCC(F)c1ccc(Cl)cc1Cl)c1cc(Cl)ncc1Oc1cccc(C2CC2)c1` (racemic) [Compound I-063], the LogP was 4.92^[a].

With `Cc1ccc(CCNC(=O)c2cc(C(C)O)ncc2Oc2cccc(C(F)(F)F)c2)c(C)c1` (centres unmarked) [Compound I-112], the LogP is 3.67^[a].

For `O=C(NCC(F)(F)c1ccc(Br)cc1Cl)c1c(Oc2cccc(C(F)(F)F)c2)cnc(Cl)c1I` [Compound I-046], the LogP is 4.96^[a].

Take `Cc1ccc(C(F)(F)CNC(=O)c2c(Oc3cccc(C(F)(F)F)c3)cnc(Cl)c2C2CC2)c(C)c1` [Compound I-149]: the LogP was 5.04^[a].

Take `Cc1ccc(CCNC(=O)c2cc(Cl)ncc2Oc2cccc(Br)c2)c(C)c1` [Compound I-137]: the LogP was 4.86^[a].

As for `Cc1cc(C(=O)NCC(F)c2ccc(Cl)cc2Cl)c(Oc2cccc(C(F)(F)F)c2)cn1` (centres unmarked) [Compound I-202], the LogP is 4.18^[a].

Take `Cc1ccc(C(F)(F)CNC(=O)c2cc(C3CC3)ncc2Oc2cccc(C3CC3)c2)c(C)c1` [Compound I-239]: the LogP is 5.41^[a].

With `C=C(OCC)c1cc(C(=O)NCCc2ccc(C)cc2C)c(Oc2cccc(C(F)(F)F)c2)cn1` [Compound I-051], the LogP was 4.84^[a].

The values above are taken from patent publication US12552748B2, “Pyridine (thio)amides as fungicidal compounds” (Bayer Aktiengesellschaft, priority 2020, dated 2026).
